The first data set has as its target T1, human EGF-R (Homo sapiens, UniProt P00533).
T1 construct: expressed in transfected cells; host or cells: F/L-HERc cells (murine IL-3-dependent FDC-P1 line transduced with LXSN retroviral vector carrying human EGF-R cDNA; packaging line GP+E86)
Put plainly: Inhibition of EGF-dependent proliferation of F/L-HERc cells (Cell Titer 96 assay). The data set is classed as cell-based. The note with it: F/L-HERc cells (murine IL-3-dependent line expressing human EGF-R), stimulated with EGF 20 ng/ml, 48 hours. The source says:
A cell line of murine origin dependent on interleukin-3-(IL-3) which was genetically modified to express functional human EGF-R was used here. The proliferation of these cells known as F/L-HERc can therefore be stimulated either by murine IL-3 or by EGF (cf. T. von Rüden et al., EMBO J. 7, 2749–2756 (1988) and J. H Pierce et al., Science 239, 628–631 (1988)).
The starting material used for the F/L-HERc cells was the cell line FDC-P1, the production of which has been described by T. M. Dexter et al., J. Exp. Med. 152, 1036–1047 (1980). Alternatively, however, other growth-factor-dependent cells may also be used (cf., for example, J. H. Pierce et al., Science 239, 628–631 (1988); H. Shibuya et al., Cell 70, 57–67 (1992); and W. S. Alexander et al., EMBO J. 10, 3683–3691 (1991)). For expressing the human EGF-R cDNA (cf. Ullrich, A. et al. in Nature 309, 418–425 (1984)) recombinant retroviruses were used as described by T. von Rüden et al., EMBO J. 7, 2749–2756 (1988), except that the retroviral vector LXSN (cf. A. D. Miller et al., BioTechniques 7, 980–990 (1989)) was used for the expression of the EGF-R cDNA and the line GP+E86 (cf. D. Markowitz et al., J. Virol. 62, 1120–1124 (1988)) was used as the packaging cell.
F/L-HERc cells were cultivated in RPMI/1640 medium (BioWhittaker), supplemented with 10% fetal calf serum (FCS, Boehringer Mannheim), 2 mM glutamine (BioWhittaker), standard antibiotics and 20 ng/ml of human EGF (Promega), at 37° C. and 5% CO2. In order to investigate the inhibitory activity of the compounds according to the invention, 1.5×10^4 cells per well were cultivated in triplicate in 96-well dishes in the above medium (200 μl), the cell proliferation being stimulated with either EGF (20 ng/ml) or murine IL-3. The IL-3 used was obtained from culture supernatants of the cell line X63/0 mIL-3 (cf. H. Karasuyama et al., Eur. J. Immunol. 18, 97–104 (1988)). The compounds according to the invention were dissolved in 100% dimethylsulfoxide (DMSO) and added to the cultures in various dilutions, the maximum DMSO concentration being 1%. The cultures were incubated for 48 hours at 37° C.
In order to determine the inhibitory activity of the compounds according to the invention the relative cell number was measured in O.D. units using the Cell Titer 96™ Aqueous Non-Radioactive Cell Proliferation Assay (Promega). The relative cell number was calculated as a percentage of the control (F/LHERc cells without inhibitor) and the concentration of active substance which inhibits the proliferation of the cells by 50% (IC50) was derived therefrom.
T1 sequence (P00533 25-1210): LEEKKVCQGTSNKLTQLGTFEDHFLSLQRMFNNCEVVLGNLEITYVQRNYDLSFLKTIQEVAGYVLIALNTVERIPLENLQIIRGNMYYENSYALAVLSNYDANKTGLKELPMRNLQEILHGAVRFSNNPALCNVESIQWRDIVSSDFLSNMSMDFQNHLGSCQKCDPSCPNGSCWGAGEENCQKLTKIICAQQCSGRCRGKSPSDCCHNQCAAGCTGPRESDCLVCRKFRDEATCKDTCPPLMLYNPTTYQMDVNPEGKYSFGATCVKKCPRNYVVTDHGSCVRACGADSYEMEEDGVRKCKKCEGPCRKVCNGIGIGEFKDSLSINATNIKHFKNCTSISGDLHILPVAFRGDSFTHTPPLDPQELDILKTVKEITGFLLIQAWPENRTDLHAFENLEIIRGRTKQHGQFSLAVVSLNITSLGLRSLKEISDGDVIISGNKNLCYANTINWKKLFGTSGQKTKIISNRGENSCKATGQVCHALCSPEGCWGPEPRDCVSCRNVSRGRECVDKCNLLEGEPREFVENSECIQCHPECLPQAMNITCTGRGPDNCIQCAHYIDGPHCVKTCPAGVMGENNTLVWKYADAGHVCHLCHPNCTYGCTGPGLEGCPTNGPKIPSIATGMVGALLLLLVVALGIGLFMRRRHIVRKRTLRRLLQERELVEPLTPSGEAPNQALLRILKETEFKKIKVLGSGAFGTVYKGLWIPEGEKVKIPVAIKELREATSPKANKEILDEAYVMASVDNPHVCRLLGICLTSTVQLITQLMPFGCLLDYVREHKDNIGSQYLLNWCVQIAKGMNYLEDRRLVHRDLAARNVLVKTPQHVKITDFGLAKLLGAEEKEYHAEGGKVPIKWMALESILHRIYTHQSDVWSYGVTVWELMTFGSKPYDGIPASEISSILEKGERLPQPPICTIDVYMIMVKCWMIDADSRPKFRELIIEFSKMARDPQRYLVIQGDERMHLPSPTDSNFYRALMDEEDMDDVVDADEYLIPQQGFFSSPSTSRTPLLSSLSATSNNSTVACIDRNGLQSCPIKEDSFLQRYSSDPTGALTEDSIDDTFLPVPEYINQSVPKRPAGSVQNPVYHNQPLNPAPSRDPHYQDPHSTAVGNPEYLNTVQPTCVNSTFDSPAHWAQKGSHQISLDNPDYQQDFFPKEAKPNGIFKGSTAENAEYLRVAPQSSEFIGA
`C=CC(=O)Nc1cc2c(Nc3cccc(Br)c3)ncnc2cc1OCCCC1CCN(C)CC1` [Example 1, 4-[(3-Bromophenyl)amino]-7-[3-(1-methylpiperidin-4-yl)propyloxy]-6-[(vinylcarbonyl)amino]quinazoline]: the IC50 (as a rule, the point on the concentration scale where inhibition reaches its midpoint) was less than 350 pM.

As to `CCN(CC)CC=CC(=O)Nc1cc2c(Nc3ccc(F)c(Cl)c3)ncnc2cc1OCC1CC1` [Example 3, 4-[(3-Chloro-4-fluorophenyl)amino]-6-{[4-(N,N-diethylamino)-1-oxo-2-buten-1-yl]amino}-7-cyclopropylmethoxyquinazoline], the IC50 is 5000 pM. Same read-out and setting: then `CC#CC(=O)Nc1cc2c(Nc3cccc(Br)c3)ncnc2cc1OCCCC1CCN(C)CC1` [2(3), 4-[(3-Bromophenyl)amino]-7-[3-(1-methylpiperidin-4-yl)propyloxy]-6-[(1-oxo-2-butyn-1-yl)amino]quinazoline], with 350 pM. For the compound `C=CC(=O)Nc1cc2c(Nc3ccc(F)c(Cl)c3)ncnc2cc1OCCCC1CCN(C)CC1` [1(7), 4-[(3-Chloro-4-fluorophenyl)amino]-7-[3-(1-methylpiperidin-4-yl)propyloxy]-6-[(vinylcarbonyl)amino]quinazoline], the concentration for half-maximal inhibition (IC50) was less than 500 pM. For the compound `O=C(C=CCN1CCOCC1)Nc1cc2c(Nc3ccc(F)c(Cl)c3)ncnc2cc1OCC1CC1` [3(1), 4-[(3-Chloro-4-fluorophenyl)amino]-6-{[4-(morpholin-4-yl)-1-oxo-2-buten-1-yl]amino}-7-cyclopropylmethoxyquinazoline], the midpoint of inhibition, the IC50, lay at 200 pM.

Tested on in a further data set: not given
Assay: not given
Settings: not given
On to `CCN(CC)CC=CC(=O)Nc1cc2c(Nc3ccc(F)c(Cl)c3)ncnc2cc1OCC1CC1` [Example 3, 4-[(3-Chloro-4-fluorophenyl)amino]-6-{[4-(N,N-diethylamino)-1-oxo-2-buten-1-yl]amino}-7-cyclopropylmethoxyquinazoline], for which the melting point was ~ 145 °C (dec.).

Source of the values: patent publication US7220750B2, “Bicyclic heterocycles, pharmaceutical compositions containing these compounds, their use and processes for preparing them” (Boehringer Ingelheim Pharma GmbH & Co. KG, priority 1999, dated 2007).
